Data reported in patent US4318904A, “Peptide affinity labels for thrombin and other trypsin-like proteases” (Research Corporation, priority 1980, dated 1982).
Where two headings read alike, the source gives them in different places. One block for each molecule: values may come before it. Where no end group is shown, it is not given here. The star is where a group is joined. CH2Cl = ClC*

Experiments:
[1] = molecular target: T1, thrombin (Homo sapiens, UniProt P00734); parameters: Thrombin itself is generated from a pro-enzyme, prothrombin, by the enzymatic action of another proteolytic enzyme, factor Xa; conditions: cited from earlier work; for t1/2, half time for the pseudo-first-order inactivation of thrombin / kapp /[I], apparent first order rate constant for inactivation of thrombin / concentration of affinity label: pH 7.0, 25° C; for Ki / k2 / k2 /Ki: Table IV, ref (a) Kettner and Shaw
[2] = molecular target: T1, thrombin; parameters: Thrombin itself is generated from a pro-enzyme, prothrombin, by the enzymatic action of another proteolytic enzyme, factor Xa; conditions: Bajusz et al, page 603; reversible inhibitor; cited from earlier work
[3] = molecular target: T1, thrombin; assay: Inactivation of human thrombin, residual esterase activity; assay type: biochemical; conditions: 4.5×10^-7 M thrombin + 2.25×10^-7 M label; theoretical value 50%
[4] = molecular target: T1, thrombin; assay: Inactivation of human thrombin, fibrinogen clotting assay; assay type: biochemical; conditions: 4.5×10^-7 M thrombin + 2.25×10^-7 M label; theoretical value 50%

Molecule: Ile-Pro-ArgCH2 Cl
- t1/2, half time for the pseudo-first-order inactivation of thrombin ([1]; inhibitor 7.5 × 10^-8 M): 22 min
- kapp /[I], apparent first order rate constant for inactivation of thrombin / concentration of affinity label [1]: 42.00 (min^-1 M^-1) × 10^-4

Molecule: D-Phe-Pro-Arg-H
- Ki [2]: 75 nM

Molecule: Phe-Ala-LysCH2 Cl
- Ki [1]: 37 µM
- k2 [1]: 0.34 min⁻¹
- k2 /Ki [1]: 9000 min⁻¹ M⁻¹

Molecule: Val-Pro-ArgCH2 Cl
- Ki [1]: 0.67 µM
- k2 [1]: 0.31 min⁻¹
- k2 /Ki [1]: 400000 min⁻¹ M⁻¹
- t1/2, half time for the pseudo-first-order inactivation of thrombin ([1]; inhibitor 7.5 × 10^-8 M): 17 min
- kapp /[I], apparent first order rate constant for inactivation of thrombin / concentration of affinity label [1]: 54.00 (min^-1 M^-1) × 10^-4

Molecule: Pro-Gly-ArgCH2 Cl
- t1/2, half time for the pseudo-first-order inactivation of thrombin ([1]; inhibitor 1.0 × 10^-6 M): 57 min
- kapp /[I], apparent first order rate constant for inactivation of thrombin / concentration of affinity label [1]: 1.20 (min^-1 M^-1) × 10^-4

Molecule: Glu-Gly-ArgCH2 Cl
- t1/2, half time for the pseudo-first-order inactivation of thrombin ([1]; inhibitor 1.0 × 10^-6 M): 31 min
- kapp /[I], apparent first order rate constant for inactivation of thrombin / concentration of affinity label [1]: 2.20 (min^-1 M^-1) × 10^-4

- inactivation of human thrombin by esterase assay [3]: 47%
- inactivation of human thrombin by clotting assay [4]: 45%
Molecule: N=C(N)NCCC[C@H](NC(=O)[C@@H]1CCCN1C(=O)[C@H](N)Cc1ccccc1)C(=O)CCl [D-Phe-Pro-ArgCH2 Cl, D-Phe-Pro-Arg-CH2 Cl.2HCl]

Molecule: Val-Val-ArgCH2 Cl
- t1/2, half time for the pseudo-first-order inactivation of thrombin ([1]; inhibitor 1.0 × 10^-6 M): 33 min
- kapp /[I], apparent first order rate constant for inactivation of thrombin / concentration of affinity label [1]: 2.10 (min^-1 M^-1) × 10^-4

Molecule: Gly-Val-ArgCH2 Cl
- Ki [1]: 13 µM
- k2 [1]: 0.30 min⁻¹
- k2 /Ki [1]: 23000 min⁻¹ M⁻¹
- t1/2, half time for the pseudo-first-order inactivation of thrombin ([1]; inhibitor 2.0 × 10^-6 M): 18 min
- kapp /[I], apparent first order rate constant for inactivation of thrombin / concentration of affinity label [1]: 1.90 (min^-1 M^-1) × 10^-4

Molecule: Pro-Phe-ArgCH2 Cl
- t1/2, half time for the pseudo-first-order inactivation of thrombin ([1]; inhibitor 5.0 × 10^-5 M): 35 min
- kapp /[I], apparent first order rate constant for inactivation of thrombin / concentration of affinity label [1]: 0.04 (min^-1 M^-1) × 10^-4

Molecule: Phe-Ala-ArgCH2 Cl
- Ki [1]: 2.9 µM
- k2 [1]: 0.26 min⁻¹
- k2 /Ki [1]: 90000 min⁻¹ M⁻¹

Molecule: Val-Ile-Pro-ArgCH2 Cl (VIPR-CH2Cl)
- t1/2, half time for the pseudo-first-order inactivation of thrombin ([1]; inhibitor 7.5 × 10^-8 M): 13 min
- kapp /[I], apparent first order rate constant for inactivation of thrombin / concentration of affinity label [1]: 73.00 (min^-1 M^-1) × 10^-4
